Here are results for 9 compounds from ChEMBL document CHEMBL3425432, “Azide-alkyne cycloaddition-mediated cyclization of phosphonopeptides and their evaluation as PTP1B binders and enrichment tools” (Bioorg Med Chem, 2015).

Series [1] concerns the target T1, Tyrosine-protein phosphatase non-receptor type 1 (Homo sapiens) (UniProt P18031).
T1 sequence (whole entry): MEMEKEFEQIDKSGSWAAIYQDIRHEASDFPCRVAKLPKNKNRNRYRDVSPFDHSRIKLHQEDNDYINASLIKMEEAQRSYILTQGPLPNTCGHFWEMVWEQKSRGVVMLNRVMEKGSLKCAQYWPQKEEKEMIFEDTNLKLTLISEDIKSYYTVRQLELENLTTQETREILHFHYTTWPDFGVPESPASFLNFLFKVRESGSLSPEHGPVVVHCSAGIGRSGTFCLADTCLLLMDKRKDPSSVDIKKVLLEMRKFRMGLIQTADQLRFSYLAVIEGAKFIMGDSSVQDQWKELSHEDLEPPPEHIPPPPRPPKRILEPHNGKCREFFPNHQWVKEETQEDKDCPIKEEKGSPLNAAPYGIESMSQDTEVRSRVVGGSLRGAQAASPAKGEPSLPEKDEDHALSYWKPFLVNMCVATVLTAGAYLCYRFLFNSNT
The series is described as follows: Binding affinity to PTP1B in human U2OS cells by SDS-PAGE based pull-down assay. The format is cell-based.

Series [2] in a line: Retention time of the compound by HPLC method. It counts as physicochemical.
Series [3] addresses Receptor-type tyrosine-protein phosphatase alpha (Homo sapiens) (UniProt P18433). The series is described as follows: Binding affinity to PTPalpha in human MCF7 cells by SDS-PAGE based pull-down assay. It counts as cell-based.
Series [4] has as its target Proto-oncogene tyrosine-protein kinase Src (Homo sapiens) (UniProt P12931). As to the kind of experiment: Binding affinity to c-Src in human MCF7 cells by SDS-PAGE based pull-down assay. It counts as cell-based.
Series [5] addresses T2, Tyrosine-protein phosphatase non-receptor type 2 (Homo sapiens) (UniProt P17706).
T2 sequence (whole entry): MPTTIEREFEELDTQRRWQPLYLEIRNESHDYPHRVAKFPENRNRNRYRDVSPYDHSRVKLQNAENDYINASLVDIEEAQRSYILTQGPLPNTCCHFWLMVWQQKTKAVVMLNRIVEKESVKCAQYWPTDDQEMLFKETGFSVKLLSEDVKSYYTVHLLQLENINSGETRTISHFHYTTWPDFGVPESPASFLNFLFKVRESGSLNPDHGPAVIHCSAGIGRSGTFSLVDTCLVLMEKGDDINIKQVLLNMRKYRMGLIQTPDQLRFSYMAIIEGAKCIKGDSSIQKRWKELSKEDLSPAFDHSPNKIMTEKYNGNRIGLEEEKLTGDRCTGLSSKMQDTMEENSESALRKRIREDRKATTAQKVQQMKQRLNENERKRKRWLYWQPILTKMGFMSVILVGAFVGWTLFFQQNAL
The series is described as follows: Binding affinity to TCPTP in human MCF7 cells by SDS-PAGE based pull-down assay. The format is cell-based.

Series [6] concerns the target T1, Tyrosine-protein phosphatase non-receptor type 1 (Homo sapiens). The series is described as follows: Binding affinity to PTP1B in human MCF7 cells by SDS-PAGE based pull-down assay. The format is cell-based.

Calls of active or inactive are those of the source. The rule behind the calls is not given here. *1 amine or outer side, *2 acyl side, *3 side chain or, on linkers, in order; H or OH if unused. Where a SMILES comes first, the peptide text is derived from it. [ ]: non-standard residue; d: D form. The star is where a group is joined. F2Pmp = N[C@@H](Cc1ccc(C(F)(F)P(=O)(O)O)cc1)C(=O)O; Biotin = O=C1N[C@H]2[C@H](CS[C@H]2CCCCC(=O)*)N1; X1 = [N-]=[N+]=N[C@@H](CCCCN[*:1])C(=O)[*:2]; pY = N[C@@H](Cc1ccc(OP(=O)(O)O)cc1)C(=O)O; Hexanoyl(6-N3) = [N-]=[N+]=NCCCCCC(=O)*; Pra = C#CC[C@H](N)C(=O)O

Receptor-type tyrosine-protein phosphatase alpha (Homo sapiens), sequence (P18433 20-802 limits assumed): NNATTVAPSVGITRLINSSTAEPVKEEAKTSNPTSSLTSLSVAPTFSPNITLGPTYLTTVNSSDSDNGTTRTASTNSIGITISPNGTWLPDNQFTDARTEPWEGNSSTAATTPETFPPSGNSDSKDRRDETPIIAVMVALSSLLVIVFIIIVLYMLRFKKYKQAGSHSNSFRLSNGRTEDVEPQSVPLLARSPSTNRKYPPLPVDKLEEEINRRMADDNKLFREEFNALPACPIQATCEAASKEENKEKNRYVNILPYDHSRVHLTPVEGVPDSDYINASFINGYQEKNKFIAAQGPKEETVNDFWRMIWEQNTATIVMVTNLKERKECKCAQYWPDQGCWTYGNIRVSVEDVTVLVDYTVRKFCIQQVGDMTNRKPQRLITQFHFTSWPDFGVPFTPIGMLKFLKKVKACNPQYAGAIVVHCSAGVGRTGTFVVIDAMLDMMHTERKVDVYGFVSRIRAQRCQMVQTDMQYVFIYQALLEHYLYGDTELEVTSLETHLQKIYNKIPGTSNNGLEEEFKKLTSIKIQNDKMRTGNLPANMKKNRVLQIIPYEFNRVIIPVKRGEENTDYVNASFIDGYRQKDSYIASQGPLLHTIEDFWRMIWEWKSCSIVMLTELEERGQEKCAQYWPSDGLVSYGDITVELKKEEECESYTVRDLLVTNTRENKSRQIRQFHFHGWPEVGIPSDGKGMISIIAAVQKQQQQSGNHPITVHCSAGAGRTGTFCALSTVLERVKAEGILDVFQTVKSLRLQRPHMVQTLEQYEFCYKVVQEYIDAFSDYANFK
Proto-oncogene tyrosine-protein kinase Src (Homo sapiens), sequence (P12931 2-536 limits assumed): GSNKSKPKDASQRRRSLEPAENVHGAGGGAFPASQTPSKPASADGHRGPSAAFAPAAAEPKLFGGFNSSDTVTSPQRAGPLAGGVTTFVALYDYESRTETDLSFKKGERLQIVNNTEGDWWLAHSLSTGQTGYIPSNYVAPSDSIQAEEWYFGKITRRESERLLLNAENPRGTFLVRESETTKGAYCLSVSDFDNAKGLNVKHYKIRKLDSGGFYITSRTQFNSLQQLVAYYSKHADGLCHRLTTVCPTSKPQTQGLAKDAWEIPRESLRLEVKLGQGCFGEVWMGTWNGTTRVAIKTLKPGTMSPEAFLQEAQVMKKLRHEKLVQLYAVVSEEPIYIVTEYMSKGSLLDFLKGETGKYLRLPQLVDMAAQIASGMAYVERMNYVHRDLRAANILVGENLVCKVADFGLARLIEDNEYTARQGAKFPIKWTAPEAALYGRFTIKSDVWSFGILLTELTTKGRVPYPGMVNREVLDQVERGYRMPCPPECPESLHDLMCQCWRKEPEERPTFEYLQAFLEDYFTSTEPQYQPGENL

Turning to `CC(=O)N[C@@H](CCCCNC(=O)CCCC[C@@H]1SC[C@@H]2NC(=O)N[C@@H]21)C(=O)N[C@@H](CCC(=O)O)C(=O)N1CCC[C@H]1C(=O)N[C@@H](CCC(N)=O)C(=O)N[C@@H](Cc1ccc(C(F)(F)P(=O)(O)O)cc1)C(=O)N[C@@H](CCC(N)=O)C(=O)N1CCC[C@H]1C(=O)NCC(=O)N[C@@H](CCC(=O)O)C(=O)N[C@@H](CC(N)=O)C(=O)N[C@@H](CC(C)C)C(N)=O` (Ac-K(Biotin)EPQ[F2Pmp]QPGENL-NH2), the outcome in series [1] was Active. In addition, in series [2], the Retention_time is reported as 9.1 min.

Take `NC(=O)CC[C@@H]1NC(=O)[C@@H]2CCCN2C(=O)[C@H](CCC(=O)O)NC(=O)[C@@H](CCCCNC(=O)CCCC[C@@H]2SC[C@@H]3NC(=O)N[C@@H]32)NC(=O)CCCCCn2cc(nn2)C[C@H](C(N)=O)NC(=O)[C@H](CC(N)=O)NC(=O)[C@H](CCC(=O)O)NC(=O)CNC(=O)[C@@H]2CCCN2C(=O)[C@H](CCC(N)=O)NC(=O)[C@H](Cc2ccc(O)cc2)NC1=O`: in series [1], the outcome was inactive. This compound also registered a Retention_time in series [2] of 8.5 min.

With `NC(=O)CC[C@@H]1NC(=O)[C@@H]2CCCN2C(=O)[C@H](CCC(=O)O)NC(=O)[C@@H](CCCCNC(=O)CCCC[C@@H]2SC[C@@H]3NC(=O)N[C@@H]32)n2cc(nn2)C[C@H](C(N)=O)NC(=O)[C@H](CC(N)=O)NC(=O)[C@H](CCC(=O)O)NC(=O)CNC(=O)[C@@H]2CCCN2C(=O)[C@H](CCC(N)=O)NC(=O)[C@H](Cc2ccc(C(F)(F)P(=O)(O)O)cc2)NC1=O`, in series [1], the outcome was Active. Also, in series [2], the Retention_time worked out at 7.1 min.

As to `NC(=O)CC[C@@H]1NC(=O)[C@@H]2CCCN2C(=O)[C@H](CCC(=O)O)NC(=O)[C@@H](CCCCNC(=O)CCCC[C@@H]2SC[C@@H]3NC(=O)N[C@@H]32)n2cc(nn2)C[C@H](C(N)=O)NC(=O)[C@H](CC(N)=O)NC(=O)[C@H](CCC(=O)O)NC(=O)CNC(=O)[C@@H]2CCCN2C(=O)[C@H](CCC(N)=O)NC(=O)[C@H](Cc2ccc(O)cc2)NC1=O`, the result in series [1], in series [3], in series [4], in series [5] and in series [6] was inactive. The same compound came in with a Retention_time in series [2] of 9.5 min.

For `NC(=O)CC[C@@H]1NC(=O)[C@@H]2CCCN2C(=O)[C@H](CCC(=O)O)NC(=O)[C@@H](CCCCNC(=O)CCCC[C@@H]2SC[C@@H]3NC(=O)N[C@@H]32)NC(=O)CCCCCn2cc(nn2)C[C@H](C(N)=O)NC(=O)[C@H](CC(N)=O)NC(=O)[C@H](CCC(=O)O)NC(=O)CNC(=O)[C@@H]2CCCN2C(=O)[C@H](CCC(N)=O)NC(=O)[C@H](Cc2ccc(C(F)(F)P(=O)(O)O)cc2)NC1=O`, the result in series [1], in series [5] and in series [6] was Active. Also, the result in series [3] and in series [4] was inactive. Besides, the Retention_time in series [2] amounted to 7.1 min.

With `CC(=O)N[C@@H](CCCCNC(=O)CCCC[C@@H]1SC[C@@H]2NC(=O)N[C@@H]21)C(=O)N[C@@H](CCC(=O)O)C(=O)N1CCC[C@H]1C(=O)N[C@@H](CCC(N)=O)C(=O)N[C@@H](Cc1ccc(OP(=O)(O)O)cc1)C(=O)N[C@@H](CCC(N)=O)C(=O)N1CCC[C@H]1C(=O)NCC(=O)N[C@@H](CCC(=O)O)C(=O)N[C@@H](CC(N)=O)C(=O)N[C@@H](CC(C)C)C(N)=O` (Ac-K(Biotin)EPQ[pY]QPGENL-NH2), the result in series [3], in series [4], in series [5] and in series [6] was inactive. In series [2], the Retention_time is given as 6.6 min.

As to `C#CC[C@H](NC(=O)[C@H](CC(N)=O)NC(=O)[C@H](CCC(=O)O)NC(=O)CNC(=O)[C@@H]1CCCN1C(=O)[C@H](CCC(N)=O)NC(=O)[C@H](Cc1ccc(C(F)(F)P(=O)(O)O)cc1)NC(=O)[C@H](CCC(N)=O)NC(=O)[C@@H]1CCCN1C(=O)[C@H](CCC(=O)O)NC(=O)[C@H](CCCCNC(=O)CCCC[C@@H]1SC[C@@H]2NC(=O)N[C@@H]21)N=[N+]=[N-])C(N)=O` (Biotin-[X1]EPQ[F2Pmp]QPGEN[Pra]-NH2), the result in series [1] was inactive. In series [2], this compound had a Retention_time of 8.8 min.

For `C#CC[C@H](NC(=O)[C@H](CC(N)=O)NC(=O)[C@H](CCC(=O)O)NC(=O)CNC(=O)[C@@H]1CCCN1C(=O)[C@H](CCC(N)=O)NC(=O)[C@H](Cc1ccc(C(F)(F)P(=O)(O)O)cc1)NC(=O)[C@H](CCC(N)=O)NC(=O)[C@@H]1CCCN1C(=O)[C@H](CCC(=O)O)NC(=O)[C@H](CCCCNC(=O)CCCC[C@@H]1SC[C@@H]2NC(=O)N[C@@H]21)NC(=O)CCCCCN=[N+]=[N-])C(N)=O` ({Hexanoyl(6-N3)}-K(Biotin)EPQ[F2Pmp]QPGEN[Pra]-NH2), the result in series [1] was inactive. The compound also showed a Retention_time in series [2] of 9.5 min.

In the case of `CC(C)C[C@H](NC(=O)[C@H](CC(N)=O)NC(=O)[C@H](CCC(=O)O)NC(=O)CNC(=O)[C@@H]1CCCN1C(=O)[C@H](CCC(N)=O)NC(=O)[C@H](Cc1ccc(C(F)(F)P(=O)(O)O)cc1)NC(=O)[C@H](CCC(N)=O)NC(=O)[C@@H]1CCCN1C(=O)[C@H](CCC(=O)O)NC(=O)CCCC[C@@H]1SC[C@@H]2NC(=O)N[C@@H]21)C(N)=O` (Biotin-EPQ[F2Pmp]QPGENL-NH2), the outcome in series [1] was inactive. The same compound yielded a Retention_time in series [2] of 8 min.
